Patent US20060160174A1, “Modified l49-sfv exhibiting increased stability and methods of use thereof” (priority 2002, published 2006)

System: H3677 melanoma cells
Assay: in vitro cytotoxicity assay with prodrug C-Mel (alamarBlue)
Type: cell-based
Details: Homo sapiens
Procedure: H3677 cells were plated into 96 well microtiter plates (5×10^3 cells/well in 100 μl of RPMI 1640 media (Invitrogen) with 10% fetal bovine serum) and allowed to adhere overnight. The cells were treated with FP95, FP990 or FP999 fusion (see Table 2) proteins at 10 nM. […] Melphalan was also added at the same concentrations to cells treated with medium alone. After 1 hour at 37° C. cells were washed three times with medium and incubated for 96 hours at 37° C. The cells were then incubated with 10% alamarBlue™ for 3 hours at 37° C. and excitation was measured in an ELISA plate reader at 570 nm.
The cells were treated with 10 nM L49-sFv-bL, unbound material was washed off and serial dilutions of C-Mel were added. C-Mel and the active drug, melphalan, were also applied to cells treated with media alone. Cell viability was measured using the redox indicator alamarBlue™.

SMILES: N[C@@H](Cc1ccc(N(CCCl)CCCl)cc1)C(=O)O [melphalan]
- IC50: ~5 µM
